# Reference: PubChem BioAssay (NCI)
#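 Here, GI50 denotes the concentration required for 50% inhibition of growth. Definition used: TGI = concentration required for complete inhibition of growth.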
# How the values were obtained:
# Assay in all cases: inhibition of tumour cell growth, NCI panel, 384-well format
# [1] = tested on: OVCAR-5 ovarian
# [2] = tested on: CAKI-1 renal
# [3] = tested on: HOP-92 NSCLC
# [4] = tested on: UACC-257 melanoma
# [5] = tested on: HL-60(TB) leukemia
# [6] = tested on: A549 NSCLC
# [7] = tested on: ACHN renal
# [8] = tested on: PC-3 prostate
# [9] = tested on: IGROV1 ovarian
# [10] = tested on: KM12 colon
# [11] = tested on: COLO 205 colon
# [12] = tested on: BT-549 breast
# [13] = tested on: SNB-75 CNS
# [14] = tested on: RXF 393 renal
# [15] = tested on: SK-MEL-2 melanoma
# [16] = tested on: M14 melanoma
# [17] = tested on: HS 578T breast
# [18] = tested on: OVCAR-4 ovarian
# [19] = tested on: OVCAR-8 ovarian
# [20] = tested on: U251 glioblastoma
# [21] = tested on: NCI-H226 lung
# [22] = tested on: TK-10 renal
# [23] = tested on: MALME-3M melanoma
# [24] = tested on: SK-OV-3 ovarian
# [25] = tested on: EKVX NSCLC
# [26] = tested on: SF-268 CNS
# [27] = tested on: MDA-MB-435 melanoma
# [28] = tested on: NCI-H322M lung
# [29] = tested on: SF-539 CNS
# [30] = tested on: NCI-H522 lung
# [31] = tested on: DU-145 prostate
# [32] = tested on: OVCAR-3 ovarian
# [33] = tested on: SK-MEL-28 melanoma
# [34] = tested on: HCT-15 colon
# [35] = tested on: MCF7 breast
# [36] = tested on: SW-620 colon
# [37] = tested on: A498 renal
# [38] = tested on: SF-295 CNS
# [39] = tested on: HOP-62 NSCLC
# [40] = tested on: SR leukemia
# [41] = tested on: MDA-MB-468 breast
# [42] = tested on: NCI-H23 lung
# [43] = tested on: HT29 colon
# [44] = tested on: UACC-62 melanoma
# [45] = tested on: HCT-116 colon
# [46] = tested on: K-562 leukemia
# [47] = tested on: UO-31 renal
# [48] = tested on: SNB-19 CNS
# [49] = tested on: 786-0 renal
# [50] = tested on: MDA-MB-231 breast
# [51] = tested on: MOLT-4 leukemia
# [52] = tested on: SK-MEL-5 melanoma
# [53] = tested on: T-47D breast
# [54] = tested on: SN12C renal
smiles,measurement,setting,value
O=C(NCCc1ccccc1)C(c1csc2ccccc12)N(C(=O)CCl)c1ccc(-c2cnco2)cc1 (configuration not stated),GI50,[1],349 nM
same,TGI,[1],1310 nM
same,GI50,[2],< 10 nM
same,TGI,[2],19 nM
same,GI50,[3],16.9 nM
same,TGI,[3],31.1 nM
same,GI50,[4],121 nM
same,TGI,[4],412 nM
same,GI50,[5],21.4 nM
same,TGI,[5],36.4 nM
same,GI50,[6],263 nM
same,TGI,[6],1580 nM
same,GI50,[7],16 nM
same,TGI,[7],30 nM
same,GI50,[8],110 nM
same,TGI,[8],245 nM
same,GI50,[9],18.2 nM
same,TGI,[9],34 nM
same,GI50,[10],483 nM
same,TGI,[10],1640 nM
same,GI50,[11],1460 nM
same,TGI,[11],2780 nM
same,GI50,[12],37.6 nM
same,TGI,[12],131 nM
same,GI50,[13],19.1 nM
same,TGI,[13],38 nM
same,GI50,[14],10.8 nM
same,TGI,[14],23.2 nM
same,GI50,[15],29.7 nM
same,TGI,[15],102 nM
same,GI50,[16],138 nM
same,TGI,[16],288 nM
same,GI50,[17],113 nM
same,TGI,[17],238 nM
same,GI50,[18],16.8 nM
same,TGI,[18],30.8 nM
same,GI50,[19],19.6 nM
same,TGI,[19],56.6 nM
same,GI50,[20],101 nM
same,TGI,[20],239 nM
same,GI50,[21],193 nM
same,TGI,[21],724 nM
same,GI50,[22],18.6 nM
same,TGI,[22],36.4 nM
same,GI50,[23],56.4 nM
same,TGI,[23],180 nM
same,GI50,[24],197 nM
same,TGI,[24],394 nM
same,GI50,[25],15.7 nM
same,TGI,[25],32.1 nM
same,GI50,[26],70.3 nM
same,TGI,[26],198 nM
same,GI50,[27],432 nM
same,TGI,[27],1680 nM
same,GI50,[28],1680 nM
same,TGI,[28],3050 nM
same,GI50,[29],16.5 nM
same,TGI,[29],34.9 nM
same,GI50,[30],< 10 nM
same,TGI,[30],15.1 nM
same,GI50,[31],62 nM
same,TGI,[31],1400 nM
same,GI50,[32],145 nM
same,TGI,[32],314 nM
same,GI50,[33],1430 nM
same,TGI,[33],2740 nM
same,GI50,[34],77.6 nM
same,TGI,[34],216 nM
same,GI50,[35],342 nM
same,TGI,[35],1480 nM
same,GI50,[36],151 nM
same,TGI,[36],289 nM
same,GI50,[37],104 nM
same,TGI,[37],222 nM
same,GI50,[38],131 nM
same,TGI,[38],261 nM
same,GI50,[39],23.7 nM
same,TGI,[39],68.4 nM
same,GI50,[40],17.6 nM
same,TGI,[40],31.9 nM
same,GI50,[41],21.5 nM
same,TGI,[41],88.1 nM
same,GI50,[42],16.5 nM
same,TGI,[42],35 nM
same,GI50,[43],127 nM
same,TGI,[43],273 nM
same,GI50,[44],18 nM
same,TGI,[44],34 nM
same,GI50,[45],287 nM
same,TGI,[45],1030 nM
same,GI50,[46],78.4 nM
same,TGI,[46],212 nM
same,GI50,[47],< 10 nM
same,GI50,[48],1760 nM
same,TGI,[48],3160 nM
same,GI50,[49],16.5 nM
same,TGI,[49],33.2 nM
same,GI50,[50],19.9 nM
same,TGI,[50],43.3 nM
same,GI50,[51],20.2 nM
same,TGI,[51],36.4 nM
same,GI50,[52],358 nM
same,TGI,[52],1680 nM
same,GI50,[53],37.7 nM
same,TGI,[53],148 nM
same,GI50,[54],1040 nM
same,TGI,[54],2220 nM
